{"source": "patent EP4806890A1", "about": "“CRYSTALLINE COMPOUND OR BASIC SALT THEREOF, PREPARATION METHOD THEREFOR, AND USE THEREOF” (Abbisko Therapeutics Co., Ltd., priority 2023, dated 2025)", "key": {"[1]": {"test": "Solubility determination (equilibrium solubility, 24 hrs stirring at room temperature, HPLC)", "format": "physicochemical", "details": "for Equilibrium solubility: target concentration 2000 µg/mL, 24 hrs; for pH24 hrs: pH of the filtrate after 24 hrs", "method": "(§1) The stability and solubility of the crystalline free form of the compound of formula (I) or the basic salt thereof of the present application were determined by HPLC.\nThe desired amount of the compound was weighed into a glass vial, and the desired amount of a vehicle was added. A stir bar was added to the vial, and the mixture was stirred at room temperature for 24 hrs. After 24 hrs, the appearance of the sample was observed. An appropriate amount of the sample was filtered through a PVDF 0.45 µm filter membrane, and the filtrate was collected. The pH value of the filtrate was determined, and the sample was diluted with MeOH. The diluted sample was injected into an HPLC system to determine the concentration."}, "[2]": {"test": "Stability determination (thermal stability and photostability, HPLC purity, appearance, XRPD)", "format": "physicochemical", "details": "for XRPD: crystalline form found", "method": "as §1\nAn appropriate amount of the sample was placed in a vial and left to stand at 50 °C, 80 °C or 50 °C & 75% RH (open) for 7 days to evaluate thermal stability. An appropriate amount of the sample was placed in a transparent vial, […] evaluation under conditions of overall near-ultraviolet energy of 1.2 * 10^6 Lux·hr and no less than 200 W·hr/m2."}, "[3]": {"details": "pH 4.7, 50 mM acetic acid buffer"}, "[4]": {"details": "pH 6.8, 50 mM phosphoric acid buffer"}, "[5]": {"details": "Aluminum foil light exposure control, 9.2 days"}, "[6]": {"details": "Brown vial light exposure control, 9.2 days"}, "[7]": {"details": "Transparent light exposure, 9.2 days"}}, "note": "Entries after “also recorded” stand apart in the source; their conditions may differ. Structures can show the parent of a compound that is named as a salt.", "data": [{"smiles": "Cc1c(NC(=O)c2cc(C3CC3)c(CN3CCCC[C@H]3C(=O)O)cn2)cccc1-c1cccc(NC(=O)c2cc(C3CC3)c(CN3CCCC[C@H]3C(=O)O)cn2)c1C", "note": "[crystalline form B of disodium salt anhydrate] [(2S,2'S)-1,1'-(((((2,2'-dimethyl-[1,1'-biphenyl]-3,3'-diyl)bis(azanediyl))bis(carbonyl))bis(4-cyclopropylpyridine-6,3-diyl))bis(methylene))bis(piperidine-2-carboxylic acid)]", "values": [{"measurement": "Equilibrium solubility", "setting": "[1]; FaSSGF", "value": 485, "unit": "µg/mL"}, {"measurement": "Equilibrium solubility", "setting": "[1]; FaSSIF", "value": 474, "unit": "µg/mL"}, {"measurement": "Equilibrium solubility", "setting": "[1]; FeSSIF", "value": "≥ 2000", "unit": "µg/mL"}, {"measurement": "Equilibrium solubility", "setting": "[1]; Water, room temperature", "value": "≥ 2000", "unit": "µg/mL"}, {"measurement": "Equilibrium solubility", "setting": "[1]; pH 1.2, HCl 100 mM", "value": "≥ 2000", "unit": "µg/mL"}, {"measurement": "Equilibrium solubility", "setting": "[1]; [3]", "value": 135, "unit": "µg/mL"}, {"measurement": "Equilibrium solubility", "setting": "[1]; [4]", "value": 194, "unit": "µg/mL"}, {"measurement": "pH24 hrs", "setting": "[1]; FaSSGF", "value": 1.72}, {"measurement": "pH24 hrs", "setting": "[1]; FaSSIF", "value": 6.93}, {"measurement": "pH24 hrs", "setting": "[1]; FeSSIF", "value": 6.90}, {"measurement": "pH24 hrs", "setting": "[1]; Water", "value": 9.96}, {"measurement": "pH24 hrs", "setting": "[1]; pH 1.2, HCl 100 mM", "value": 0.95}, {"measurement": "pH24 hrs", "setting": "[1]; [3]", "value": 4.92}, {"measurement": "pH24 hrs", "setting": "[1]; [4]", "value": 7.03}, {"measurement": "solubility (in words)", "setting": "[1]; various pH conditions, buffers and biological medium solutions", "value": "excellent solubility"}, {"measurement": "physical and chemical stability (in words)", "setting": "[2]; 50 °C, 50 °C/75% RH or brown light exposure", "value": "relatively high physical and chemical stability"}, {"measurement": "Appearance", "setting": "[2]; 50 °C, 7 days", "value": "White powder"}, {"measurement": "Purity (%)", "setting": "[2]; 50 °C, 7 days", "value": 92.11, "unit": "%"}, {"measurement": "Appearance", "setting": "[2]; 50 °C/75%RH, 7 days", "value": "White powder"}, {"measurement": "Purity (%)", "setting": "[2]; 50 °C/75%RH, 7 days", "value": 92.97, "unit": "%"}, {"measurement": "Appearance", "setting": "[2]; 80 °C, 7 days", "value": "White powder"}, {"measurement": "Purity (%)", "setting": "[2]; 80 °C, 7 days", "value": 90.77, "unit": "%"}, {"measurement": "Appearance", "setting": "[2]; [5]", "value": "White powder"}, {"measurement": "Purity (%)", "setting": "[2]; [5]", "value": 89.50, "unit": "%"}, {"measurement": "Appearance", "setting": "[2]; [6]", "value": "White powder"}, {"measurement": "Purity (%)", "setting": "[2]; [6]", "value": 88.10, "unit": "%"}, {"measurement": "Appearance", "setting": "[2]; Initial, 0 days", "value": "White powder"}, {"measurement": "Purity (%)", "setting": "[2]; Initial, 0 days", "value": 91.23, "unit": "%"}, {"measurement": "Appearance", "setting": "[2]; [7]", "value": "White powder"}, {"measurement": "Purity (%)", "setting": "[2]; [7]", "value": 83.10, "unit": "%"}, {"measurement": "XRPD", "setting": "[2]; 50 °C, 7 days", "value": "Crystalline form B of disodium salt"}, {"measurement": "XRPD", "setting": "[2]; 50 °C/75%RH, 7 days", "value": "Crystalline form B of disodium salt"}, {"measurement": "XRPD", "setting": "[2]; 80 °C, 7 days", "value": "Crystalline form B of disodium salt"}, {"measurement": "XRPD", "setting": "[2]; [5]", "value": "Crystalline form B of disodium salt"}, {"measurement": "XRPD", "setting": "[2]; [6]", "value": "Crystalline form B of disodium salt"}, {"measurement": "XRPD", "setting": "[2]; Initial, 0 days", "value": "Crystalline form B of disodium salt"}, {"measurement": "XRPD", "setting": "[2]; [7]", "value": "Crystalline form B of disodium salt"}, {"measurement": "crystalline form transformation (in words)", "setting": "[2]; high temperature and light exposure", "value": "no crystalline form transformation was observed"}, {"measurement": "sensitivity to light (in words)", "setting": "[2]; light exposure", "value": "sensitive to light exposure"}, {"measurement": "physical stability (in words)", "setting": "[2]; stability testing conditions, incl. high temperature and high humidity", "value": "good physical stability; also recorded: relatively high physical stability"}]}]}
